Results taken from patent US9982017B2, “Synthetic apelin mimetics for the treatment of heart failure” (priority 2012, dated 2018).
Like-named read-outs stand apart in the source and are kept apart here. Where a SMILES comes first, the peptide text is derived from it. Bridges are numbered along the chain shown (N, C = ends). [ ]: non-standard residue; d: D form. The star is where a group is joined. Palmitoyl = CCCCCCCCCCCCCCCC(=O)*; Nle = CCCC[C@H](N)C(=O)O; AEEA = NCCOCCOCC(=O)O

How the values were obtained:
in vitro = conditions: rat, not told, Surrogate activity-based Plasma stability t½
Experimental: (§1) The slope of this line, k, was determined by linear regression (Microsoft Excel). • Stability half-life was then calculated by the formula, t ½=0.693÷k Surrogate Activity-Based Plasma Stability Assay:
(§2) The calcium flux protocol described above was followed, with the following changes. The peptides were also incubated with 5% rat plasma (Bioreclamation # [sequence]-M, Na Heparin-treated). Readings were taken at time points t0 and t24 hrs, after incubation in a 37° C. tissue culture incubator. Peptide plasma half-life in minutes was estimated by calculating the following:
2) Calculate slope of value above and

hAPJ = target: T1, hAPJ (Homo sapiens, UniProt P35414); experiment: hAPJ Calcium Flux Assay; assay type: cell-based
T1 sequence (P35414 1-380): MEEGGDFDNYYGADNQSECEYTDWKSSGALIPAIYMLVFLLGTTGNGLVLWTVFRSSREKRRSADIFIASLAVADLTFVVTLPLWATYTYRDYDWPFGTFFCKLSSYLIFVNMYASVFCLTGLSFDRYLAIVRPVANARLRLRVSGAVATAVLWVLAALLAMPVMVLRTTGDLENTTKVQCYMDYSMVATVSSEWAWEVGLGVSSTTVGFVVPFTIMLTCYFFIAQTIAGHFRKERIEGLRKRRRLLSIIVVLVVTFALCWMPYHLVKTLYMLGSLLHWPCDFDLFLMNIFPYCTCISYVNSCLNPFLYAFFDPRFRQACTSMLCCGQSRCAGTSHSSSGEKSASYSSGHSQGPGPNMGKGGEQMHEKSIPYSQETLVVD
Experimental: Chem-5 APJ stable cells (Millipore # HTS068C) were plated in 384-well format with 10,000 cells/well in 25 ul growth media, then grown 24 hours in a 37° C. tissue culture incubator. One hour before the assay, 25 ul/well FLIPR Calcium 4 dye (Molecular Devices R8142) with 2.5 mM probenecid was added, and cells were incubated one hour in a 37° C. tissue culture incubator. Peptides were solubilized in HBSS, HEPES & 0.1% BSA buffer, and serially-diluted 10-fold, from 50 uM to 5 pM, in triplicate. FLIPR Tetra was used to add peptide to the cells with dye (1:5, for final peptide concentrations ranging from 10 uM to 1 pM). FLIPR dye inside the cells emitted fluorescence after binding to calcium, while fluorescence from outside the cells was masked. Fluorescence was measured using 470-495 excitation and 515-575 emission wavelengths on the FLIPR Tetra. Readings were done for 3 minutes total, beginning 10 seconds before the peptide addition. Maximum-minimum values were calculated and plotted for each peptide concentration, and Graph Pad prism software was used to calculate EC50 values at the curve inflection points, for calcium flux stimulation by peptides.

[1] = Surrogate Activity-Based Plasma Stability Assay (calcium flux EC50 after incubation with 5% rat plasma); conditions: not told
Experimental: as §1, §2
2) Calculate slope of value above and

| half-life (in vitro) [h] | EC50 (hAPJ; Chem-5 APJ stable cells, FLIPR Calcium 4 dye, read-out: hAPJ Ca^2+ Flux EC50) [nM] | Compound | half-life [1] [h] | EC50 (hAPJ) [nM] |
| --- | --- | --- | --- | --- |
| 5.06 | 32.7 | CCCCCCCCCCCCCCCC(=O)NCCOCCOCC(=O)N[C@@H](CCC(N)=O)C(=O)N[C@@H](CCCNC(=N)N)C(=O)N1CCC[C@H]1C(=O)N[C@@H](CCCNC(=N)N)C(=O)N[C@@H](CC(C)C)C(=O)N[C@H]1CSSC[C@@H](C(=O)N[C@@H](Cc2ccccc2)C(=O)O)NC(=O)[C@H](CCCC)NC(=O)[C@@H]2CCCN2C(=O)CNC(=O)[C@H](CCCCN)NC(=O)[C@H](Cc2c[nH]cn2)NC1=O [Example 24, Palmitoyl-O2Oc-Q-R-P-R-L-C-H-K-G-P-Nle-C-F-OH] ({Palmitoyl-AEEA}-QRPRLCHKGP[Nle]CF-OH; disulfide 6-12) |  |  |
|  |  | CCCC[C@@H]1NC(=O)[C@@H]2CCCN2C(=O)CNC(=O)[C@H](CCCCN)NC(=O)[C@H](Cc2ccccc2)NC(=O)[C@@H]2CSSC[C@H](NC1=O)C(=O)N[C@@H](Cc1ccccc1)C(=O)NCC(=O)NCC(=O)N[C@@H](CCC(N)=O)C(=O)N[C@@H](CCCNC(=N)N)C(=O)N1CCC[C@H]1C(=O)N[C@@H](CCCNC(=N)N)C(=O)N[C@@H](CC(C)C)C(=O)N2 [Example 7, Q-R-P-R-L-C-F-K-G-P-Nle-C-F-G-G] (cyclo(CFGGQRPRLCFKGP[Nle]); disulfide 1-10) | > 16.7 | 90.9 |
